Experiments:
Format in all cases: in vivo
DIGITARIA SANGUINALIS = assay: Compound (A) with glyphosate, weed plots; conditions: 52 DAA, No. 2.2
Source text: (§1) The compositions were formulated as an emulsifyable concentrate (EC).
(§2) The results in the table under each application are the percentage of the plants that were killed.

CYPERUS ROTUNDUS = assay: Compound (A) with glyphosate, weed plots; conditions: 2 DAA, No. 2.5
Source text: as §1, §2

HORDEUM PUSILLUM = assay: Compound (A) with glyphosate, weed plots; conditions: 13 DAA, No. 2.6
Source text: as §1, §2

CYPERUS SP. = assay: Compound (A) with glyphosate, weed plots
Source text: as §1, §2

CYNODON DACTYLON = assay: Compound (A) with glyphosate, weed plots; conditions: 82 DAA, No. 2.1
Source text: as §1, §2

IPOMOEA SP. = assay: Compound (A) with S-metolachlor, weed plots
Method: (§3) In these tests, various weeds were treated with S-metolachlor (SMOC) alone at an application rate equivalent to 1420 g per hectare, Compound (A) alone at rates equivalent to 20 g per hectare and […] and with mixtures of S-metolachlor and the Compound (A) at rates equivalent to the sum of these. The compositions were formulated as an emulsifyable concentrate (EC).
as §2

C[…] = assay: Compound (A) with S-metolachlor, weed plots
Method: as §3, §2

## CCOC(=O)COc1ncccc1Oc1cc(-n2c(=O)cc(C(F)(F)F)n(C)c2=O)c(F)cc1Cl [Compound (A)]
DIGITARIA SANGUINALIS; 10 g/ha
  percentage of the plants that were killed: 0%
DIGITARIA SANGUINALIS; 20 g/ha
  percentage of the plants that were killed: 0%
CYPERUS ROTUNDUS; 10 g/ha
  percentage of the plants that were killed: 40%
CYPERUS ROTUNDUS; 20 g/ha
  percentage of the plants that were killed: 75%
HORDEUM PUSILLUM; 10 g/ha
  percentage of the plants that were killed: 60%
HORDEUM PUSILLUM; 20 g/ha
  percentage of the plants that were killed: 70%
CYPERUS SP.; 10 g/ha, 1 DAA, No. 2.3
  percentage of the plants that were killed: 0%
CYPERUS SP.; 10 g/ha, 52 DAA, No. 2.4
  percentage of the plants that were killed: 0%
CYPERUS SP.; 20 g/ha, 1 DAA, No. 2.3
  percentage of the plants that were killed: 0%
CYPERUS SP.; 20 g/ha, 52 DAA, No. 2.4
  percentage of the plants that were killed: 0%
CYNODON DACTYLON; 10 g/ha
  percentage of the plants that were killed: 0%
CYNODON DACTYLON; 20 g/ha
  percentage of the plants that were killed: 0%
IPOMOEA SP.; 20 g/ha, 25 DAA, Trial 4.9
  percentage of the plants that were killed: 35%
IPOMOEA SP.; 20 g/ha, 49 DAA, Trial 4.10
  percentage of the plants that were killed: 20%
IPOMOEA SP.; 40 g/ha, 25 DAA, Trial 4.9
  percentage of the plants that were killed: 65%
IPOMOEA SP.; 40 g/ha, 49 DAA, Trial 4.10
  percentage of the plants that were killed: 60%
C[…]; 20 g/ha, 26 DAA, Trial 4.5
  percentage of the plants that were killed: 80%
C[…]; 20 g/ha, 54 DAA, Trial 4.6
  percentage of the plants that were killed: 0%
C[…]; 20 g/ha, 56 DAA, Trial 4.11
  percentage of the plants that were killed: 0%
C[…]; 40 g/ha, 26 DAA, Trial 4.5
  percentage of the plants that were killed: 80%
C[…]; 40 g/ha, 54 DAA, Trial 4.6
  percentage of the plants that were killed: 44%
C[…]; 40 g/ha, 56 DAA, Trial 4.11
  percentage of the plants that were killed: 13%

From US20090233796A1, “HERBICIDAL COMPOSITION” (SYNGENTA CROP PROTECTION, INC., priority 2004, published 2009)
